Results from patent publication US20070098864A1, “PROCESS FOR PREPARING FORMULATIONS OF […] […] SPRAY FREEZING DRYING” (priority 2004, published 2007).

Experiments:
[1] = Modulated differential scanning calorimetry (glass transition temperature) of THC/inulin powders; type: physicochemical; details: MDSC
Protocol: Thermal behaviour of the spray freeze dried powders was determined by modulated differential scanning calorimetry (MDSC) on a differential scanning calorimeter (DSC2920, TA Instruments, Gent, Belgium). A modulation amplitude of 0.318° C., a modulation period of 60 seconds and a heating rate of 2° C./min was used. Calibration was performed with indium. Standard aluminium sample pans were used. During measurement, the sample cell was purged with nitrogen at a flow rate of 35 mL/min. Before scanning, the sample pan was heated at 2° C./min to 50° C. to remove all residual moisture. Subsequently, the sample was cooled to −20° C. and then scanned up to 180° C. The glass transition temperature (Tg) was defined as the inflection point of the change in specific heat in the reversing signal.

[2] = Stability study of THC (HPLC) in climate chambers
Protocol: To investigate the degradation of pure THC, 20 mL glass vials were charged with 70 μL of a solution of THC in methanol containing 2.52 mg THC. They were left overnight under a flow of dry nitrogen to allow for methanol evaporation. The resulting thin layers of THC spread over the bottom of the vials (4.5 cm^2). Spray freeze dried and freeze dried material containing THC were weighed in vials. All samples were stored in climate chambers of 20° C./45% RH and 60° C./8% RH. Samples (n=3) were taken at different time intervals and analysed by means of HPLC using the method described by van Drooge et al. (Eur. J. Pharm. Sci. 2004, 21, 511-518). Briefly, samples were extracted with methanol. A Waters 717+ autosampler was used to inject 50 μL of supernatant on a precolumn (HPLC precolum inserts, μBondapak C18 Guardpak) followed by a Chrompack Nucleosil 100 C18 column (4.6×250 mm). Absorbance at 214 nm was measured with a UV detector (Shimadzu SPD-M6A). Chromatograms and peak areas were analysed with an integrator (waters 741 Data Module) and Kromasystem 2000 software. The flow rate of the eluens (methanol/water 92/8 (v/v) plus 5 drops concentrated sulphuric acid per litre eluens) was set at 1.0 mL/min. […] In every series of HPLC-runs some calibration samples were included.

CCCCCc1cc(O)c2c(c1)OC(C)(C)[C@@H]1CCC(C)=C[C@@H]21 [pure THC, Δ^9-tetrahydrocannabinol]
Tg ([1]; pure substance): 9.3 °C | 1st Tg (° C.) ([1]; spray freeze dried, Tg of THC): 9.3 ± 1.0 °C | time to complete degradation ([2]; exposed to air of 20° C./45% RH): ≤ 50 days | time to complete degradation ([2]; storage at 60° C./8% RH): ≤ 15 days
